Tests used:
human GLP-1R receptor = molecular target: T1, human GLP-1R receptor (Homo sapiens, UniProt P43220, L260F); assay: CHOK1 GLP-1R cAMP Assay (HTRF); type: cell-based; conditions: CHO-K1 cells stably expressing human GLP-1R (Leu260Phe variant), 20 min at rt
T1 construct: expressed in transfected cells; host or cells: CHO-K1 (ATCC CCL-61)
Experimental: A cell line stably expressing the human GLP-1R receptor (NM_002062.5, including the naturally-occurring variant Leu260Phe) in a CHO-K1 (ATCC® CCL-61™) was used for assay.
GLP-1 receptor mediated agonist activity was determined in a cell-based assay measuring cyclic adenosine monophosphate (cAMP) levels in cells using Homogeneous Time-Resolved Fluorescence (HTRF) cAMP detection kit (CisBio catalog #62AM4PEC, cAMP Gs Dynamic range kit). The cAMP detection method is based on a competitive immunoassay, in which cAMP produced by the cells and cAMP labeled with the dye d2 compete for binding to a Europium-Cryptate-labeled anti-cAMP antibody. The specific HTRF signal is inversely proportional to the concentration of cAMP.
Compounds were added to individual well in 384 well-assay plates (Greiner #784076) using an Echo (LabCyte) dispenser from 10 mM stocks. Varying concentration of compounds were added to wells, and DMSO was used to normalize each well to a volume of 100 nL. A dose response curve of GLP-1(7-36)NH2 (Bachem H-6795) was included in each run. 5 μL of cAMP concentration response standards are applied in specified wells in the assay plates. Cryo-preserved cells are thawed and resuspended in assay buffer pre-heated to 37° C. (20 mM 2-[4-(2-hydroxyethyl)piperazin-1-yl]ethanesulfonic acid (HEPES) pH 7.4, 1× Hank's Balanced Salt Solution (HBSS, Life Technologies #14065) supplemented with 0.1% (w/v) bovine serum albumin (Sigma, A-7030)). Cells were centrifuged at 250*g for 5 min at rt, and resuspended in room tempered assay buffer to a final density of 0.16*10^6 cell/mL, to deliver 800 cells/well. 5 μL of assay buffer with 1 mM 3-isobutyl-1-methylxanthin (IBMX; Sigma cat I-7018) was dispensed per well in assay plates using a multidrop combi (Thermo Scientific) subsequently 5 μL of cell suspension was distributed to relevant wells in the assay using a multidrop dispenser. Assay plates were incubated 20 min at rt.
Detection reagents, Europium-Cryptate-labeled anti-cAMP antibody and cAMP labeled with the dye d2, are diluted in lysis buffer, provided by the manufacturer. 5 μL of each detection reagent is supplemented to each assay well using a multidrop dispenser. Assay plates are incubated in the dark for at least one h. The HTRF signal is measured using the HTRF module (excitation: 337 nm, emission A: 665 nm and emission B: 620 nm) in Pherastar FSX (BMG Labtech).
Raw data were converted to pM cAMP using the cAMP standard curve included in each run. Converted data were further analyzed in Genedata Screener (Genedata) and EC50 determinations were made from agonist dose-response curves analyzed with a curve fitting is program using a 4-parameter logistic dose response equation (Equation y=A+((B-A)/1+((C/x)^D))) where A is no stimulation, B is full stimulation, C is the EC50 and D is the Hill slope). The percent effect was determined relative to a saturating concentration of a full GLP-1R agonist (GLP-1(7-36)NH2 has 100% effect in this assay setup).

[1] = molecular target: T2, GLP-1R in a pancreatic insulinoma cell line (EndoC-PH1) (Homo sapiens, UniProt P43220); assay: EndoC cAMP Accumulation Assay (HTRF); type: cell-based; conditions: EndoC-PH1 human pancreatic beta cell line, endogenous GLP-1R, 30 min at rt
T2 construct: host or cells: EndoC-βH1 human pancreatic beta cell line
T2 sequence (P43220 24-463): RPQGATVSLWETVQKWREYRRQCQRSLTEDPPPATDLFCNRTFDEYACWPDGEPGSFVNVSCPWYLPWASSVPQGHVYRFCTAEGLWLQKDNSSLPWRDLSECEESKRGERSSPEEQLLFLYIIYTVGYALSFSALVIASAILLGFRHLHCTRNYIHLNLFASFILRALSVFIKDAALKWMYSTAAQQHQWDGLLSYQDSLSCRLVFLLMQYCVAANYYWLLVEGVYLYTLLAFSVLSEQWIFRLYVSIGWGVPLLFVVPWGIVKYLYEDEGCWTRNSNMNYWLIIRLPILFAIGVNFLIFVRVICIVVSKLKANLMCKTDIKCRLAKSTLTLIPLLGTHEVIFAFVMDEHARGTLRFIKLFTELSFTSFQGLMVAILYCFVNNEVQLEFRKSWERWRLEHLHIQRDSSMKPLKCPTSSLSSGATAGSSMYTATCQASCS
Description: EndoC cAMP Accumulation Assay
A HTRF cAMP assay (cAMP Gs dynamic kit; CisoBio Cat #62AM4PEJ) was used to identify agonists of GLP-1R in a pancreatic insulinoma cell line (EndoC-PH1). […] EndoC-PHlcells have detectable GLP-1R messenger ribonucleic acid (mRNA) as detected by quantitative polymerase chain reaction (qPCR). […] The EndoC-PH1 cell line is a valid model of human beta cells and applicable for screenings to identify novel drug target candidates (Mol. Metab., 2018, 8, 144-157). CisBio HTRF cAMP kits are based on a competitive immunoassay using cryptate-labelled anti-cAMP antibody and d2-labeled cAMP. The detection kit is intended for the direct is quantitative determination of cAMP. The specific signal (i.e. energy transfer) is inversely proportional to the concentration of cAMP in the standard or sample. Test compounds (10 mM in DMSO) were diluted into assay buffer (HBSS (Sigma #H8264) supplemented with 25 mM HEPES (Gibco #15630, pH 7.4), 0.1% BSA (Sigma #A3059) and 0.5 mM IBMX (Sigma #I7018) included fresh on the day of the assay) into 96 well U-bottom plates (Greiner #650201). Diluted compounds were transferred to ECHO source polypropelene plates (Labcyte #P-05525) and dose response curves were dispensed acoustically using ECHO 550 into black shallow-well u-bottom 384-well HTRF Assay Plates (Corning 4514). Cryovials of EndoC-H1 (supplied at 1×10e^7 cells/vial) were used directly for screening. The cryovials and were removed from N2(1) and thawed rapidly in a 37° C. water bath. The cells were resuspended in assay buffer and centrifuged at 300 g for 5 min. Cells were resuspended in assay buffer at the appropriate concentration, typically at 12e5 cells per mL (3000 cells per well, dependent on cell batch) and 2.5 μL diluted cells were added to all wells of destination plate by Multidrop combi reagent dispenser (Thermofisher). The plates were incubated at rt for 30 min. The assay was stopped by adding 2.5 μL anti-cAMP cryptate solution to all wells and 2.5 μL cAMP-d2 solution (both diluted 1:20 in lysis buffer) to columns 1-22 by Combi drop. A volume of 2.5 μL cAMP-d2 solution was added to wells E23 to P24 and 2.5 μL lysis buffer added to wells A23 to D24 by multichannel pipette. The plates were incubated at rt for 1 h and read on an Envision plate reader using excitation wavelength of 320 nm and emission of […] and 660 nm.
Raw data from Envision is converted to % DeltaF according to the manufacturer's instructions. Dose response curves are analysed via 4-Parameter Logistical Analysis and assay plate Z’ values obtained. Samples are graphed as percentage (%) activation plots compared to […] with assay window defined by negative control as basal cell is cAMP levels and positive control are defined by maximum GIP (82.5 nM) signal. GLP-1 (7-36 amide, Bachem H-6795) dose response curve was included on all plates.

T1 sequence (P43220 24-463 L260F): as the sequence (P43220 24-463) above, with L237F counted along it

| EC50 (human GLP-1R receptor) [nM] | EC50 [1] [nM] | SMILES |
| --- | --- | --- |
| 19 | 76 | CCn1ccnc1Cn1c(CN2CCN(c3cccc4c3O[C@@](C)(c3ccc(Cl)cn3)O4)[C@H]3CC[C@@H]32)nc2c(Cl)cc(C(=O)O)cc21 (single isomer, unassigned) [Example 10b] |
| 240 | 1000 | CCn1ccnc1Cn1c(CN2CCN(c3cccc4c3O[C@@](C)(c3ccc(Cl)cn3)O4)[C@H]3CC[C@@H]32)nc2c(Cl)cc(C(=O)O)cc21 (single isomer, unassigned) [Example 10c] |
| 0.98 | 3.3 | C[C@]1(c2ccc(Cl)cc2F)Oc2cccc(N3CCN(Cc4nc5ccc(C(=O)O)cc5n4C[C@@H]4CCO4)[C@H]4CC[C@H]43)c2O1 (single isomer, unassigned) [Example 18a, 2-(((1R*,6S*)-5-((R*)-2-(4-Chloro-2-fluorophenyl)-2-methylbenzo[d][1,3]dioxol-4-yl)-2,5-diazabicyclo[4.2.0]octan-2-yl)methyl)-1-(((S)-oxetan-2-yl)methyl)-1H-benzo[d]imidazole-6-carboxylic acid] |
| 120 | 480 | C[C@]1(c2ccc(Cl)cc2F)Oc2cccc(N3CCN(Cc4nc5ccc(C(=O)O)cc5n4C[C@@H]4CCO4)[C@H]4CC[C@H]43)c2O1 (single isomer, unassigned) [Example 18b, 2-((1R*,6S*)-5-(R*)-2-(4-Chloro-2-fluorophenyl)-2-methylbenzo[d][1,3]dioxol-4-yl)-2,5-diazabicyclo[4.2.0]octan-2-yl)methyl)-1-(((S)-oxetan-2-yl)methyl)-1H-benzo[d]imidazole-6-carboxylic acid] |
| 5.8 | 10 | C[C@]1(c2ccc(Cl)cc2F)Oc2cccc(N3CCN(Cc4nc5ccc(C(=O)O)cc5n4C[C@@H]4CCO4)[C@H]4CC[C@H]43)c2O1 (single isomer, unassigned) [Example 18c] |
| 0.81 | 2.2 | C[C@]1(c2ccc(Cl)cn2)Oc2cccc(N3CCN(Cc4nc5c(Cl)cc(C(=O)O)cc5n4C[C@@H]4CCO4)[C@H]4CC[C@H]43)c2O1 (single isomer, unassigned) [Example 20c, 4-Chloro-2-(((1R*,6S*)-5-((R*)-2-(5-chloropyridin-2-yl)-2-methylbenzo[d][1,3]dioxol-4-yl)-2,5-diazabicyclo[4.2.0]octan-2-yl)methyl)-1-(((S)-oxetan-2-yl)methyl)-1H-benzo[d]imidazole-6-carboxylic acid] |

The remaining lines, values behind:

| SMILES | EC50 (human GLP-1R receptor) [nM] | EC50 [1] [nM] |
| --- | --- | --- |
| C[C@]1(c2ccc(Cl)cn2)Oc2cccc(N3CCN(Cc4nc5ccc(C(=O)O)cc5n4C[C@@H]4CCO4)[C@H]4CC[C@H]43)c2O1 (single isomer, unassigned) [Example 5c] | 180 | 1800 |
| C[C@]1(c2ccc(Cl)cn2)Oc2cccc(N3CCN(Cc4nc5ccc(C(=O)O)cc5n4C[C@@H]4CCO4)[C@H]4CC[C@H]43)c2O1 (single isomer, unassigned) [Example 5d, 2-((1R*,6S*)-5-(R*)-2-(5-Chloropyridin-2-yl)-2-methylbenzo[d][1,3]dioxol-4-yl)-2,5-diazabicyclo[4.2.0]octan-2-yl)methyl)-1-(((S)-oxetan-2-yl)methyl)-1H-benzo[d]imidazole-6-carboxylic acid] | 4.7 | 8.6 |
| COc1cc(C(=O)O)cc2c1nc(CN1CCN(c3cccc4c3O[C@@](C)(c3ccc(Cl)cn3)O4)[C@H]3CC[C@@H]31)n2C[C@@H]1CCCO1 (single isomer, unassigned) [Example 7a, 2-(((1R*,6R*)-5-((R*)-2-(5-Chloropyridin-2-yl)-2-methylbenzo[d][1,3]dioxol-4-yl)-2,5-diazabicyclo[4.2.0]octan-2-yl)methyl)-4-methoxy-1-(((S)-tetrahydrofuran-2-yl)methyl)-1H-benzo[d]imidazole-6-carboxylic acid] | 27 | 72 |
| COc1cc(C(=O)O)cc2c1nc(CN1CCN(c3cccc4c3O[C@@](C)(c3ccc(Cl)cn3)O4)[C@H]3CC[C@@H]31)n2C[C@@H]1CCCO1 (single isomer, unassigned) [Example 7c, 2-(((1R*,6R*)-5-((R*)-2-(5-Chloropyridin-2-yl)-2-methylbenzo[d][1,3]dioxol-4-yl)-2,5-diazabicyclo[4.2.0]octan-2-yl)methyl)-4-methoxy-1-(((S)-tetrahydrofuran-2-yl)methyl)-1H-benzo[d]imidazole-6-carboxylic acid] | 110 | 32 |
| COc1cc(C(=O)O)cc2c1nc(CN1CCN(c3cccc4c3O[C@@](C)(c3ccc(Cl)cn3)O4)[C@@H]3CC[C@@H]31)n2C[C@@H]1CCCO1 (single isomer, unassigned) [Example 8a] | 6.2 | 6.6 |
| COc1cc(C(=O)O)cc2c1nc(CN1CCN(c3cccc4c3O[C@@](C)(c3ccc(Cl)cn3)O4)[C@@H]3CC[C@@H]31)n2C[C@@H]1CCCO1 (single isomer, unassigned) [Example 8d] | 93 | 370 |
| C[C@]1(c2ccc(Cl)cc2F)Oc2cccc(N3CCN(Cc4nc5c(F)cc(C(=O)O)cc5n4C[C@@H]4CCO4)[C@H]4CC[C@H]43)c2O1 (single isomer, unassigned) [Example 9a] | 57 | 340 |
| C[C@]1(c2ccc(Cl)cc2F)Oc2cccc(N3CCN(Cc4nc5c(F)cc(C(=O)O)cc5n4C[C@@H]4CCO4)[C@H]4CC[C@H]43)c2O1 (single isomer, unassigned) [Example 9c, 2-(((1R*,6S*)-5-((R*)-2-(4-Chloro-2-fluorophenyl)-2-methylbenzo[d][1,3]dioxol-4-yl)-2,5-diazabicyclo[4.2.0]octan-2-yl)methyl)-4-fluoro-1-(((S)-oxetan-2-yl)methyl)-1H-benzo[d]imidazole-6-carboxylic acid] | 28 | 74 |
